Measurements: patent US8394814B2, “Method of purifying crude noscapine” (priority 2008, dated 2013)
Where two headings read alike, the source gives them in different places.

Assays:
[1] = type: physicochemical; conditions: for Solubility: neutral pH
Experimental: To determine the solubility of noscapine in a variety of different solvents at neutral pH, the following experiment was conducted. Noscapine solubility was determined at ambient temperature (22° C.-23° C.) and at 50° C. by dissolving noscapine and noting the amount dissolved prior to saturation for the following solvents: acetone, acetonitrile, ethanol, isopropanol, methanol, pentanol, toluene, and water.

[2] = type: physicochemical
Experimental: To characterize the solubility of noscapine in acetonitrile/water systems, the following experiment was conducted. […] The results of the solubility measurements are summarized in Table 3 and are summarized in a graph in FIG. 8.

[3] = type: physicochemical; conditions: for Solubility: room temperature; for Reduction of the solubility of noscapine by adding an equal amount of water: Table 1 compared with Table 2
Experimental: Noscapine solubility was also determined at room temperature for the following solvent mixtures, mixed in a roughly 1:1 ratio by weight: acetone:water, acetonitrile:water, chloroform:ethanol, toluene:ethanol. Solubilities were determined using methods similar to those described above, and the measured solubilities are summarized in Table 2.

COc1ccc2c(c1OC)C(=O)O[C@@H]2[C@H]1c2c(cc3c(c2OC)OCO3)CCN1C [noscapine]
Solubility ([1]; Acetone, 23° C.): 68.56 mg of noscapine/g of solvent | Solubility ([1]; Acetone, 50° C.): 145.98 mg of noscapine/g of solvent | Solubility ([1]; Acetonitrile, 23° C.): 52.33 mg of noscapine/g of solvent | Solubility ([1]; Acetonitrile, 50° C.): 151.21 mg of noscapine/g of solvent | Solubility ([1]; Chloroform, 23° C.): 504.11 mg of noscapine/g of solvent | Solubility ([1]; Ethanol, 50° C.): 5.90 mg of noscapine/g of solvent | Solubility ([1]; Isopropanol, 50° C.): 12.99 mg of noscapine/g of solvent | Solubility ([1]; Methanol, 50° C.): 1.81 mg of noscapine/g of solvent | Solubility ([1]; Pentanol, 50° C.): 12.29 mg of noscapine/g of solvent | Solubility ([1]; Toluene, 23° C.): 40.65 mg of noscapine/g of solvent | Solubility ([1]; Toluene, 50° C.): 59.99 mg of noscapine/g of solvent | Solubility ([1]; Water, 50° C.): 0.82 mg of noscapine/g of solvent | Solubility in words ([1]; chloroform): highly soluble | Solubility in words ([1]; water): nearly insoluble | Solubility ([2]; 0% acetonitrile by weight in water, 50° C.): 0.2 mg noscapine per gram of solve | Solubility ([2]; 0% acetonitrile by weight in water, 70° C.): 0.2 mg noscapine per gram of solve | Solubility ([2]; 20% acetonitrile by weight in water, 50° C.): 0.8 mg noscapine per gram of solve | Solubility ([2]; 20% acetonitrile by weight in water, 70° C.): 1.4 mg noscapine per gram of solve | Solubility ([2]; 40% acetonitrile by weight in water, 50° C.): 8.1 mg noscapine per gram of solve | Solubility ([2]; 40% acetonitrile by weight in water, 70° C.): 6.7 mg noscapine per gram of solve | Solubility ([2]; 60% acetonitrile by weight in water, 50° C.): 32.6 mg noscapine per gram of solve | Solubility ([2]; 60% acetonitrile by weight in water, 70° C.): 46.3 mg noscapine per gram of solve | Solubility ([2]; 80% acetonitrile by weight in water, 50° C.): 82.8 mg noscapine per gram of solve | Solubility ([2]; 80% acetonitrile by weight in water, 70° C.): 181.9 mg noscapine per gram of solve | Solubility ([2]; 100% acetonitrile by weight, 50° C.): 131.0 mg noscapine per gram of solve | Solubility ([2]; 100% acetonitrile by weight, 70° C.): 226.5 mg noscapine per gram of solve | Change of solubility in acetonitrile with temperature ([2]; acetonitrile, temperature increased from 22° C. to 50° C.): more than doubles | Increase of solubility in the acetonitrile/water mixture ([2]; between 0° C. and 70° C., acetonitrile concentrations of about 50% or above): up to 10 fold | Ratio of the solubility in pure acetonitrile to the solubility in pure water ([2]; solvent temperature 0° C.): about 78 | Ratio of the solubility in pure acetonitrile to the solubility in pure water ([2]; solvent temperature 70° C.): about 647 | Solubility ([3]; Acetone 49.4% / Water 50.6% by weight): 3.21 mg noscapine/g of solvent | Solubility ([3]; Acetonitrile 48.6% / Water 51.4% by weight): 1.06 mg noscapine/g of solvent | Solubility ([3]; Chloroform 50.0% / Ethanol 50.0% by weight): 73.34 mg noscapine/g of solvent | Solubility ([3]; Toluene 51.0% / Ethanol 49.0% by weight): 37.21 mg noscapine/g of solvent | Reduction of the solubility of noscapine by adding an equal amount of water ([3]; second solvent of 'acetone and water' as printed): about 98% | Reduction of the solubility of noscapine by adding an equal amount of water ([3]; solvent acetone): about 95%
